Assay results published in patent US20240092758A1, “IMIDAZOLO INDAZOLE COMPOUNDS AS JAK INHIBITORS” (Theravance Biopharma R&D IP, LLC, priority 2021, published 2024).

Legend:
JAK2 = JAK2 (Homo sapiens (Human), UniProt O60674); experiment: Biochemical JAK kinase assay (LanthaScreen), JAK2; settings: for Ki: read-out: JAK2 pKi (converted)
Method: (§1) A panel of four LanthaScreen JAK biochemical assays (JAK1, 2, 3 and Tyk2) were carried in a common kinase reaction buffer (50 mM HEPES, pH 7.5, 0.01% Brij-35, 10 mM MgCl2, and 1 mM EGTA). Recombinant GST-tagged JAK enzymes and a GFP-tagged STAT1 peptide substrate were obtained from Life Technologies.
(§2) Serially diluted compounds were pre-incubated with each of the four JAK enzymes and the substrate in white 384-well microplates (Corning) at ambient temperature for 1 h. ATP was subsequently added to initiate the kinase reactions in 10 μL total volume, with 1% DMSO. The final enzyme concentrations for JAK1, 2, 3 and Tyk2 are 4.2 nM, 0.1 nM, 1 nM, and 0.25 nM respectively; the corresponding Km ATP concentrations used are 25 μM, 3 μM, 1.6 μM, and 10 μM; while the substrate concentration is 200 nM for all four assays. Kinase reactions were allowed to proceed for 1 hour at ambient temperature before a 10 μL preparation of EDTA (10 mM final concentration) and Tb-anti-pSTAT1 (pTyr701) antibody (Life Technologies, 2 nM final concentration) in TR-FRET dilution buffer (Life Technologies) was added. The plates were allowed to incubate at ambient temperature for 1 h before being read on the EnVision reader (Perkin Elmer). Emission ratio signals (520 nm/495 nm) were recorded and utilized to calculate the percent inhibition values based on DMSO and background controls.
(§3) For dose-response analysis, percent inhibition data were plotted vs. compound concentrations, and IC50 values were determined from a 4-parameter robust fit model with the Prism software (GraphPad Software). Results were expressed as pIC50 (negative logarithm of IC50) and subsequently converted to pKi (negative logarithm of dissociation constant, Ki) using the Cheng-Prusoff equation.
(§4) Test compounds having a lower Ki value or higher pKi value in the four JAK assays show greater inhibition of JAK activity.

JAK1 = JAK1 (Homo sapiens (Human), UniProt P23458); experiment: Biochemical JAK kinase assay (LanthaScreen), JAK1; settings: for Ki: read-out: JAK1 pKi (converted)
Method: as §1, §2, §3, §4

[1] = tested on: IL-13 induced STAT6 phosphorylation in BEAS-2B human lung epithelial cells; experiment: Cellular JAKI potency assay (BEAS-2B); format: cell-based; settings: Homo sapiens, BEAS-2B, BEAS-2B cells, read-out: BEAS2B pIC50 (converted)
Method: The JAKI cellular potency assay was carried out by measuring inhibition of interleukin-13 (IL-13, R&D Systems) induced STAT6 phosphorylation in BEAS-2B human lung epithelial cells (ATCC). BEAS-2B cells were grown at 37° C. in a 5% CO2 humidified incubator in 50% DMEM/50% F-12 medium (Life Technologies) supplemented with 10% FBS (Hyclone), 100 U/mL penicillin, 100 μg/mL streptomycin (Life Technologies), and 2 mM GlutaMAX (Life Technologies). On day 1 of the assay, cells were seeded at a 7,500 cells/well density in white poly-D-lysine-coated 384-well plates (Corning) with 25 μL medium and were allowed to adhere overnight in the incubator. On day 2 of the assay, the medium was removed and replaced with 12 μL of assay buffer (Hank's Balanced Salt Solution/HBSS, 25 mM HEPES, and 1 mg/ml bovine serum albumin/BSA) containing dose-responses of test compounds. Compounds were serially diluted in DMSO and then diluted another 1000-fold in media to bring the final DMSO concentration to 0.1%. Cells were incubated with test compounds at 37° C. for 1 h and followed by the addition of 12 μl of pre-warmed IL-13 (80 ng/mL in assay buffer) for stimulation. After incubating at 37° C. for 30 min, the assay buffer (containing compound and IL-13) was removed, and 10 μL of cell lysis buffer (25 mM HEPES, 0.1% SDS, 1% NP-40, 5 mM MgCl2, 1.3 mM EDTA, 1 mM EGTA, supplemented with Complete Ultra mini protease inhibitors and PhosSTOP from Roche Diagnostics). The plates were shaken at ambient temperature for 30 min before the addition of detection reagents. Levels of pSTAT6 were measured using the AlphaLISA SureFire Ultra pSTAT6 (Tyr641) assay kit from PerkinElmer. For dose-response analysis, percent inhibition data were plotted vs. compound concentrations, and IC50 values were determined from a 4-parameter robust fit model with the Graphpad Prism software. Results are expressed as the negative logarithm of the IC50 value, pIC50.
Test compounds having a lower IC50 value or higher pIC50 value in this assay show greater inhibition of IL-13 induced STAT6 phosphorylation.

Sequence of JAK2 (O60674 whole entry): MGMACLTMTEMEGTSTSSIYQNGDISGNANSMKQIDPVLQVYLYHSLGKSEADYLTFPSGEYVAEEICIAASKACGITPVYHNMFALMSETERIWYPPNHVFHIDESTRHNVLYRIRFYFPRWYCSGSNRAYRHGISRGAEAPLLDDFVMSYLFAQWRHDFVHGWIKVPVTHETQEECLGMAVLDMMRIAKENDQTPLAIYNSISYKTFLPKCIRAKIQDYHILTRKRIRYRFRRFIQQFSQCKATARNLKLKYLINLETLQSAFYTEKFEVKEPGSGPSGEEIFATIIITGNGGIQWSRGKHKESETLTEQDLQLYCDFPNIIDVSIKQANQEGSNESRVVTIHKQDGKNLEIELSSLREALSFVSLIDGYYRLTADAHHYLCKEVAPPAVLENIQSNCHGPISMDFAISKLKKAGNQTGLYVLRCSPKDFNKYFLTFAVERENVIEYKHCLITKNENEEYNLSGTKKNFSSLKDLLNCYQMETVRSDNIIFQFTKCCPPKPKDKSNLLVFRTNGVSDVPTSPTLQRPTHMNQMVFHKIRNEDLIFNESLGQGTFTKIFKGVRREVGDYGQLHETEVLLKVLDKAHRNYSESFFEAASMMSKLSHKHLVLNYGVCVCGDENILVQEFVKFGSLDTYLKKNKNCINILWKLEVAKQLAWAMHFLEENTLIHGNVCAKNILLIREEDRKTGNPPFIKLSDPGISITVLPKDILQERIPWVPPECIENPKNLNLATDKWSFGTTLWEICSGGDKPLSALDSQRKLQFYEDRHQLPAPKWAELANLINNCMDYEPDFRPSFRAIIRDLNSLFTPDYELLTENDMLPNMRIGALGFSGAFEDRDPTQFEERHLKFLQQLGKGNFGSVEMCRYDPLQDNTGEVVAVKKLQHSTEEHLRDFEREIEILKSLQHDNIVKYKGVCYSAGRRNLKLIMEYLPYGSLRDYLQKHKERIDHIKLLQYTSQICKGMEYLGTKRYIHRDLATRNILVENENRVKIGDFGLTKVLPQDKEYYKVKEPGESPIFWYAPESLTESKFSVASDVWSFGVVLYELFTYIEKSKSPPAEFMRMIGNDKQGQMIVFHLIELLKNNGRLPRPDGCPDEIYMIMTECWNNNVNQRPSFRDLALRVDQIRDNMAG
Sequence of JAK1 (P23458 whole entry): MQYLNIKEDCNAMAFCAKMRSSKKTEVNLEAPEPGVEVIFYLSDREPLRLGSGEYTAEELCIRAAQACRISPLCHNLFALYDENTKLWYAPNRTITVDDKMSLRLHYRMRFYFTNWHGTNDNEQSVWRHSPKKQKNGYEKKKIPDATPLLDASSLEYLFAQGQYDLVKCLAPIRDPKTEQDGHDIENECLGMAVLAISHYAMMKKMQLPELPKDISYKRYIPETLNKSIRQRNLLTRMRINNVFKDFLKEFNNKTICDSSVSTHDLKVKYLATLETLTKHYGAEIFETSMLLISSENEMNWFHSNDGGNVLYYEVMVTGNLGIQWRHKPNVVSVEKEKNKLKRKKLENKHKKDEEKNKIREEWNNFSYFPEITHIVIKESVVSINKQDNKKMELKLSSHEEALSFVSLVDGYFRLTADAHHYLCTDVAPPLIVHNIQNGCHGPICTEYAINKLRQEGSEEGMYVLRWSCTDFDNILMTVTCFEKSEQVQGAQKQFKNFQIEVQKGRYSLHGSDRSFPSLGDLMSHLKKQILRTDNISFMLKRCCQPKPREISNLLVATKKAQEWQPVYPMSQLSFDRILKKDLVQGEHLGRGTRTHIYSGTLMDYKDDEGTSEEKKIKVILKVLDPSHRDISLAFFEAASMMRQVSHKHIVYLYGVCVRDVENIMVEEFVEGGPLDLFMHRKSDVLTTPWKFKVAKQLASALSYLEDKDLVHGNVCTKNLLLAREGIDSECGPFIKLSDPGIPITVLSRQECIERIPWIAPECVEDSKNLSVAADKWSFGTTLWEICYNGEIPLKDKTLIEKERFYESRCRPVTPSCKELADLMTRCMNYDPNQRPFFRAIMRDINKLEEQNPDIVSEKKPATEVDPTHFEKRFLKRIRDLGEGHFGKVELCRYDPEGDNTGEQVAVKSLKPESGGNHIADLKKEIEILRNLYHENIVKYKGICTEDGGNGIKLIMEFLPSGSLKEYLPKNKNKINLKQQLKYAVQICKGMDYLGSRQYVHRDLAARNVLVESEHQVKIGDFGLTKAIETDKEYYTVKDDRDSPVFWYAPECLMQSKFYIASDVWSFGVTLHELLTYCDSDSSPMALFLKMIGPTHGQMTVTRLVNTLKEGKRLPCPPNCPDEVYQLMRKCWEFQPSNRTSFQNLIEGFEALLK

Row | Structure (SMILES) | JAK2 pKi (JAK2) | JAK1 pKi (JAK1) | IC50 [1] [nM] | Ki (JAK1) [nM] | Ki (JAK2) [nM]
1 | CCc1cc(O)ccc1-c1ccc2c(-c3nc(C4=CCN(CCNS(C)(=O)=O)CC4)c[nH]3)n[nH]c2c1 [Example 99] | A (A represents a pKi value ≥10 (Ki≤0.1 nM)) | A (A represents a pKi value ≥10 (Ki≤0.1 nM)) | 10 to 31.6 | – | –
2 | CCc1cc(O)ccc1-c1ccc2c(-c3nc(C4=CCN(CCNC(C)=O)CC4)c[nH]3)n[nH]c2c1 [Example 100] | A (A represents a pKi value ≥10 (Ki≤0.1 nM)) | A (A represents a pKi value ≥10 (Ki≤0.1 nM)) | 3.16 to 10 | – | –
3 | CCc1cc(O)ccc1-c1ccc2c(-c3nc(C4=CCN(CCNS(=O)(=O)C(C)C)CC4)c[nH]3)n[nH]c2c1 [Example 101] | A (A represents a pKi value ≥10 (Ki≤0.1 nM)) | – | 10 to 31.6 | 0.1 to 1 | –
4 | CCc1cc(O)ccc1-c1ccc2c(-c3nc(C4=CCN(CCNC(=O)C(C)C)CC4)c[nH]3)n[nH]c2c1 [Example 102] | A (A represents a pKi value ≥10 (Ki≤0.1 nM)) | A (A represents a pKi value ≥10 (Ki≤0.1 nM)) | 3.16 to 10 | – | –
5 | CCc1cc(O)ccc1-c1ccc2c(-c3nc(C4=CCN(CCCNS(C)(=O)=O)CC4)c[nH]3)n[nH]c2c1 [Example 103] | A (A represents a pKi value ≥10 (Ki≤0.1 nM)) | A (A represents a pKi value ≥10 (Ki≤0.1 nM)) | 10 to 31.6 | – | –
6 | CCc1cc(O)ccc1-c1ccc2c(-c3nc(C4=CCN(CCCNC(C)=O)CC4)c[nH]3)n[nH]c2c1 [Example 104] | A (A represents a pKi value ≥10 (Ki≤0.1 nM)) | A (A represents a pKi value ≥10 (Ki≤0.1 nM)) | 3.16 to 10 | – | –
7 | CCc1cc(O)ccc1-c1ccc2c(-c3nc(C4=CCN(CCCNS(=O)(=O)C(C)C)CC4)c[nH]3)n[nH]c2c1 [Example 105] | A (A represents a pKi value ≥10 (Ki≤0.1 nM)) | A (A represents a pKi value ≥10 (Ki≤0.1 nM)) | 10 to 31.6 | – | –
8 | CCc1cc(O)ccc1-c1ccc2c(-c3nc(C4=CCN(CCNC(C)=O)CC4)c[nH]3)n[nH]c2c1F [Example 107] | A (A represents a pKi value ≥10 (Ki≤0.1 nM)) | A (A represents a pKi value ≥10 (Ki≤0.1 nM)) | 10 to 31.6 | – | –
9 | CCc1cc(O)ccc1-c1ccc2c(-c3nc(C4=CCCN(CCNS(C)(=O)=O)C4)c[nH]3)n[nH]c2c1 [Example 108] | A (A represents a pKi value ≥10 (Ki≤0.1 nM)) | – | 10 to 31.6 | 0.1 to 1 | –
10 | CCc1cc(O)ccc1-c1ccc2c(-c3nc(C4=CCCN(CCNC(C)=O)C4)c[nH]3)n[nH]c2c1 [Example 109] | – | – | 10 to 31.6 | 0.1 to 1 | 0.1 to 1
11 | CCc1cc(O)ccc1-c1ccc2c(-c3nc(C4=CCCN(CCNC(=O)C(C)C)C4)c[nH]3)n[nH]c2c1 [Example 110] | – | – | 10 to 31.6 | 0.1 to 1 | 0.1 to 1
12 | CCc1cc(O)ccc1-c1ccc2c(-c3nc(C4=CCCN(CCNS(C)(=O)=O)C4)c[nH]3)n[nH]c2c1F [Example 111] | – | – | 10 to 31.6 | 0.1 to 1 | 0.1 to 1
13 | CCc1cc(O)ccc1-c1ccc2c(-c3nc(C4=CCCN(CCNC(C)=O)C4)c[nH]3)n[nH]c2c1F [Example 112] | – | – | 10 to 31.6 | 0.1 to 1 | 0.1 to 1
14 | CCc1cc(O)ccc1-c1ccc2c(-c3nc(C4=CCN(CCNS(C)(=O)=O)C4)c[nH]3)n[nH]c2c1 [Example 113] | A (A represents a pKi value ≥10 (Ki≤0.1 nM)) | – | 10 to 31.6 | 0.1 to 1 | –
15 | CCc1cc(O)ccc1-c1ccc2c(-c3nc(C4=CCN(CCNC(C)=O)C4)c[nH]3)n[nH]c2c1 [Example 114] | A (A represents a pKi value ≥10 (Ki≤0.1 nM)) | A (A represents a pKi value ≥10 (Ki≤0.1 nM)) | 3.16 to 10 | – | –
16 | CCc1cc(O)ccc1-c1ccc2c(-c3nc(C4=CCN(CCNS(C)(=O)=O)C4)c[nH]3)n[nH]c2c1F [Example 115] | A (A represents a pKi value ≥10 (Ki≤0.1 nM)) | – | 10 to 31.6 | 0.1 to 1 | –
17 | CCc1cc(O)ccc1-c1ccc2c(-c3nc(C4=CCN(CCNC(C)=O)C4)c[nH]3)n[nH]c2c1F [Example 116] | A (A represents a pKi value ≥10 (Ki≤0.1 nM)) | – | 10 to 31.6 | 0.1 to 1 | –
18 | CCc1cc(O)ccc1-c1ccc2c(-c3nc(C4=CCN(CCCNC(=O)C(C)C)CC4)c[nH]3)n[nH]c2c1 [Example 117] | A (A represents a pKi value ≥10 (Ki≤0.1 nM)) | A (A represents a pKi value ≥10 (Ki≤0.1 nM)) | 3.16 to 10 | – | –
19 | CCc1cc(O)ccc1-c1ccc2c(-c3nc(C4=CCN(CCN5CCNC5=O)CC4)c[nH]3)n[nH]c2c1 [Example 118] | A (A represents a pKi value ≥10 (Ki≤0.1 nM)) | A (A represents a pKi value ≥10 (Ki≤0.1 nM)) | 31.6 to 100 | – | –
20 | CCc1cc(O)ccc1-c1ccc2c(-c3nc(C4=CCN(CCN5CCCC5=O)CC4)c[nH]3)n[nH]c2c1F [Example 119] | – | – | 10 to 31.6 | 0.1 to 1 | 0.1 to 1
21 | CCc1cc(O)ccc1-c1ccc2c(-c3nc(C4=CCN(CCN5CCNC5=O)CC4)c[nH]3)n[nH]c2c1F [Example 120] | – | – | 10 to 31.6 | 0.1 to 1 | 0.1 to 1
22 | CCc1cc(O)ccc1-c1ccc2c(-c3nc(C4=CCN(C5CCC(O)CC5)CC4)c[nH]3)n[nH]c2c1F (stereo not drawn) [Example 121] | A (A represents a pKi value ≥10 (Ki≤0.1 nM)) | – | 10 to 31.6 | 0.1 to 1 | –
23 | CCc1cc(O)ccc1-c1ccc2c(-c3nc(C4=CCN(CC5CNC(=O)O5)CC4)c[nH]3)n[nH]c2c1F (stereo not drawn) [Example 123] | – | – | 31.6 to 100 | 0.1 to 1 | 0.1 to 1
24 | CCc1cc(O)ccc1-c1ccc2c(-c3nc(C4=CCCN(CCN5CCNC5=O)C4)c[nH]3)n[nH]c2c1 [Example 124] | A (A represents a pKi value ≥10 (Ki≤0.1 nM)) | A (A represents a pKi value ≥10 (Ki≤0.1 nM)) | 3.16 to 10 | – | –
25 | CCc1cc(O)ccc1-c1ccc2c(-c3nc(C4=CCCN(CCN5CCNC5=O)C4)c[nH]3)n[nH]c2c1F [Example 125] | – | – | 31.6 to 100 | 0.1 to 1 | 0.1 to 1
26 | CCc1cc(O)ccc1-c1ccc2c(-c3nc(C4=CCN(CCN5CCNC5=O)C4)c[nH]3)n[nH]c2c1 [Example 127] | – | – | 10 to 31.6 | 0.1 to 1 | 0.1 to 1
